Earlier results as cited in paper PMC4128962 (Journal of controlled release : official journal of the …, 2013).

- pKa: about 3.0
Substance: Hyaluronic acid [HA]
